Like-named read-outs stand apart in the source and are kept apart here.

The Ki is a measure of affinity in units of concentration, obtained from inhibition or displacement.

The test system of one experiment is opioid receptors. Conditions: background statement; cited from earlier work.
In the next experiment the target is T1, κ receptors (Cavia porcellus, UniProt P41144).
T1 construct: homogenates of guinea-pig cerebellum membrane; from tissue; host or cells: guinea-pig cerebellum membrane homogenate
In words: affinity to the κ receptors, [3H]U 69593 binding, guinea-pig cerebellum membrane homogenates. Conditions: 0.7 nM [3H]U 69593, 80 minutes at 22° C. As to the method: (§1) The affinity of M6G and of morphine was compared to that of the M6G derivatives according to the invention for the opioid receptors μ (mu) and κ (kappa).
Concentrations of M6G, morphine and the compound according to the invention of 10^−14 to 10^−6 M were used.
(§2) The non-specific binding was determined by means of the addition to the labelled ligands of naloxone 10 μM.
(§3) After incubation, the samples were filtered on glass fibres (GF/B, Packard) previously incubated with 0.3% polyethyleneimine and rinsed several times with 50 mM of cold Tris-HCl using a “96-sample cell harvester” (Unifilter, Packard). The filters were then dried and the radioactivity counted.

A further experiment deals with mouse. Description: tail flick test (analgesic effect). Format: in vivo. The conditions noted are these: mice, intravenous route. For orientation: Thermal pain tests record how soon the animal reacts.
The next experiment concerns the target T2, μ receptors (Rattus norvegicus, UniProt P33535).
T2 construct: homogenates of rat cerebral cortex membrane; from tissue; host or cells: rat cerebral cortex membrane homogenate
Description: affinity to the μ receptors, [3H]DAMGO binding, rat cerebral cortex membrane homogenates. As to the method:
as §1, §2, §3

Where [1] appears, read: Affinity to the K receptors (Ki).

T2 sequence (P33535 whole entry): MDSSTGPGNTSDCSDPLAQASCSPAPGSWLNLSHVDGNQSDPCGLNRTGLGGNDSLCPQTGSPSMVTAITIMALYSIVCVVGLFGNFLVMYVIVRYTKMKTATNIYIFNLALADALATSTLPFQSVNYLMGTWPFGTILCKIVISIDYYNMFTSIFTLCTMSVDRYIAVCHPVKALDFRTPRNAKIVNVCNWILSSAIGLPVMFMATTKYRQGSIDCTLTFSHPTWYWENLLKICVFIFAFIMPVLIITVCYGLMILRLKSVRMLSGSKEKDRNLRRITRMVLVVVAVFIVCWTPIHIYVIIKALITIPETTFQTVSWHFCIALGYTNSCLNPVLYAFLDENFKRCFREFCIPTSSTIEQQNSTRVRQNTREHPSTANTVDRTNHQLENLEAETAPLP
T1 sequence (P41144 whole entry): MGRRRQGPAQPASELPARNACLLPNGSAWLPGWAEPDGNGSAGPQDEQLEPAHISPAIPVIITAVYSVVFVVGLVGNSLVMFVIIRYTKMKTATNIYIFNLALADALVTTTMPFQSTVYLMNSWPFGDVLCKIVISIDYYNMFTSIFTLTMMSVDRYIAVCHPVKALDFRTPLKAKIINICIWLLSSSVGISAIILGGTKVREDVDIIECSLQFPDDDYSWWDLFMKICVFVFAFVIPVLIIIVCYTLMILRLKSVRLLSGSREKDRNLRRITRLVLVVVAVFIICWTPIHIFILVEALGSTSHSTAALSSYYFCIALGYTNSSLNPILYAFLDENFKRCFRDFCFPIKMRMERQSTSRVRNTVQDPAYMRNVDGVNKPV

Consider `CN1CC[C@]23c4c5ccc(O[C@@H]6O[C@H](C(=O)O)[C@@H](O)[C@H](O)[C@H]6O)c4O[C@H]2[C@@H](O)C=C[C@H]3[C@H]1C5` [Example M3G, morphine-3-glucuronide], for which the “affinity for the opioid receptors” value in the experiment on opioid receptors was “no affinity”.
Take `CN1CCC23c4c5ccc(O)c4OC2C(OC2OC(C(=O)O)C(O)C(O)C2O)C=CC3C1C5` (stereo not drawn) [Example M6G, morphine-6-glucuronide]: the Ki was found to be 224 nM at κ receptors (setting [1]) and 13.6 nM at μ receptors. Further, in the experiment on mouse, the “ED50, the dose which induces 50% of the analgesic effect” value was determined as 0.55 mg eq./kg. The “duration of the action (analgesic activity)” value (“duration of the action” for short) with mouse is given as “approximately 100 minutes”. Further, in the experiment with opioid receptors, the “affinity for the opioid receptors” value was “high affinity”.
Consider `CCN(CC)C(=O)C(CS)NC(=O)C1OC(OC2C=CC3C4Cc5ccc(O)c6c5C3(CCN4C)C2O6)C(O)C(O)C1O` (stereo not drawn) [Example M6G-Cys-DEA, M6G-Cys-DEA], for which the Ki stood at 1.9 nM on κ receptors (setting [1]) and 0.36 nM at μ receptors.
On the same counts, the results for `CCOC(=O)C(CS)NC(=O)C1OC(OC2C=CC3C4Cc5ccc(O)c6c5C3(CCN4C)C2O6)C(O)C(O)C1O` (stereo not drawn) [Example M6G-Cys-OEt, M6G-Cys-OEt] are 11.2 nM and 1.17 nM.
The matching figures for `COC(=O)C(CS)NC(=O)C1OC(OC2C=CC3C4Cc5ccc(O)c6c5C3(CCN4C)C2O6)C(O)C(O)C1O` (stereo not drawn) [Example M6G-Cys-OMe, M6G-Cys-OMe]: 14 nM and 1.04 nM.
As for `CN1CC[C@]23c4c5ccc(O)c4O[C@H]2[C@@H](O[C@@H]2O[C@H](C(=O)NCCSSCCNC(=O)[C@H]4O[C@@H](O[C@H]6C=CC7[C@H]8Cc9ccc(O)c%10c9[C@@]7(CCN8C)[C@H]6O%10)[C@H](O)[C@@H](O)[C@@H]4O)[C@@H](O)[C@H](O)[C@H]2O)C=CC3[C@H]1C5` (stereo partly drawn) [M6G-Cya-Cya-M6G], the values for the Ki at κ receptors (setting [1]) and at μ receptors were 6.22 nM and 0.38 nM, respectively. For the same compound, the “duration of the action” value in the experiment with mouse came out at 360 min.
In the case of `CN1CC[C@]23c4c5ccc(O)c4O[C@H]2[C@@H](O[C@@H]2OC(C(=O)NCCS)[C@@H](O)C(O)C2O)C=CC3[C@H]1C5` (stereo partly drawn) [M6G-cysteamide], the Ki at κ receptors (setting [1]) amounted to 4.49 nM; on μ receptors, 2.35 nM.
In the case of `CN1CC[C@]23c4c5ccc(O)c4O[C@H]2[C@@H](O)C=C[C@H]3[C@H]1C5` [Morphine], in the experiment on mouse, the “ED50, the dose which induces 50% of the analgesic effect” value was determined as 2.65 mg eq./kg and the “duration of the action” value is “approximately 100 minutes”.
On to “M6G-Cya-Cya-PEG20000 [M6G-Cya-Cya-PEG200000]”, for which the Ki on κ receptors (read-out: Affinity to the K receptors (Ki)) came out at 0.72 nM; on μ receptors (rat cerebral cortex membrane, 1 nM [3H]DAMGO, 60 minutes at 22° C., read-out: Affinity to the μ receptors (Ki)), 0.92 nM.

The values above are taken from patent US7365055B2, “Derivatives of morphine-6-glucuronide, pharmaceutical compositions containing them, their preparation method and their uses” (BTG International Limited, priority 2003, dated 2008).
